The values below come from paper PMC8990417, “^18F-labeled Dimer-Sansalvamide A Cyclodecapeptide: A Novel Diagnostic Probe to Discriminate Pancreatic Cancer from Inflammation in a Nude Mice Model” (Journal of Cancer, 2022).

One assay relates to PL45 cells. Put plainly: MTT bioactivity assay (cell viability). Format: cell-based, human. The conditions noted are these: 72 hours incubation. The protocol:
A 3-(4,5-Dimethylthiazol-2-yl)-2,5-Diphenyltetrazolium Bromide (MTT) (Thermo Fisher Scientifc, NY, USA) assay was used to test the bioactivity of NOTA-Dimer-San A cyclodecapeptide. PL45 cells (5000 cells) were seeded in a 96-well plate and incubated overnight. […]. Each concentration was performed in triplicate, and the drug was incubated with the cells for 72 hours. Then 10 μL of MTT (5 mg/mL) was added into each well, incubated for 4 hours until a purple precipitate was visible, and then 100 μL of a detergent reagent was added and incubated until the crystal was dissolved. Finally, the optical density (proportional to the number of live cells) was assessed with a Synergy H1 Hybrid Reader (BioTek® Instruments Inc., Winooski, Vermont, USA) at 570 nm. The cell viability (%) was calculated with GraphPad Prism 5.0 software (GraphPad Software Inc., San Diego, CA, USA).

For assay [1], the system named is pancreatic cancer PL45 cells. Details: method as in PMID 20014866, PMID 29202402. The settings on record: read-out: IC50 (inhibition of pancreatic cancer PL45 cells); cited from earlier work.
A further assay addresses T1, Hsp90 in PL45 cells (Homo sapiens, UniProt P07900).
T1 construct: endogenous in cells; host or cells: PL45 cells
Put plainly: Confocal cell immunofluorescence. It is filed as cell-based. The settings on record: biotin-peptide detected with Cy5 labeled avidin, anti-Hsp90α antibody co-stain. The protocol: PL45 cells (3-5 × 10^5) were seeded in a confocal plate with 500 µL of culture medium and incubated for 24 hours at 37°C with 5% CO2. The cell culture medium was then removed, and the cells were rinsed 3 times using phosphate buffered saline (PBS). The cells were fixed using 400 µL of 4% paraformaldehyde (pH 7.4) for 20 minutes at room temperature (RT, ~20°C). Then 500 µL of 3% Bovine Serum Albumin (BSA) (Sigma-Aldrich Corp., St. Louis, MO, USA) was added and incubated for 30 minutes at RT for blocking. The cells were washed and then 250 µL of diluted anti-hsp90α antibody (1:250) or biotine-Dimer-San A peptide was added and incubated for 24 hours at 4°C. The cells were washed, and the desired concentration of the fluorescent-dye-labeled secondary antibody (Abcam, Cambridge, UK) or Cy5 labeled avidin (Vector Laboratories, Burlingame, CA, USA) was added and protected from light at RT for 60 minutes. The supernatant was discarded, and the cells were washed, then a drop of antifade mounting medium with DAPI (Vector Laboratories, Burlingame, CA, USA) was added and incubated for 45 minutes. The target antigen was visualized by confocal fluorescence microscopy Zeiss LSM 880 Airyscan (Carl Zeiss AG, Oberkochen, Germany).

`C=CCNC1=C2C[C@@H](C)C[C@H](OC)[C@H](O)[C@@H](C)/C=C(\C)[C@H](OC(N)=O)[C@@H](OC)/C=C\C=C(/C)C(=O)NC(=CC1=O)C2=O` [17AAG, 17-allylaminogeldanamycin]: the IC50 (commonly the concentration that gives 50% inhibition) in the assay on PL45 cells amounted to 127 nM.

In the case of “Dimer-Sansalvamide A cyclodecapeptide [Dimer-San A]”, the IC50 in assay [1] is 1 to 20 nM. Besides, the “binding / co-localization with Hsp90 (confocal immunofluorescence)” value at Hsp90 in PL45 cells is recorded as “bound to the Hsp90 target”.
